The results in this text go back to patent US10329294B2, “Pyrazolopyrimidine inhibitors of IRAK4 activity” (MERCK SHARP & DOHME CORP., priority 2015, dated 2019).

Molecules are shown by their SMILES. Where a name gives a salt, the structure may show the parent alone.

This test concerns the target IRAK4 (Homo sapiens (Human), UniProt Q9NWZ3). Description: IRAK4 Kinase Assay. The following applies: IMAP fluorescence polarization, 0.5 nM GST tagged IRAK4, 100 μM ATP, 30 minutes at 25° C.; read-out: IRAK4 IC50. Format: biochemical. In general terms: Polarisation of emitted light reports the rotation of a fluorescent probe.

Chain of IRAK4 (Q9NWZ3 whole entry): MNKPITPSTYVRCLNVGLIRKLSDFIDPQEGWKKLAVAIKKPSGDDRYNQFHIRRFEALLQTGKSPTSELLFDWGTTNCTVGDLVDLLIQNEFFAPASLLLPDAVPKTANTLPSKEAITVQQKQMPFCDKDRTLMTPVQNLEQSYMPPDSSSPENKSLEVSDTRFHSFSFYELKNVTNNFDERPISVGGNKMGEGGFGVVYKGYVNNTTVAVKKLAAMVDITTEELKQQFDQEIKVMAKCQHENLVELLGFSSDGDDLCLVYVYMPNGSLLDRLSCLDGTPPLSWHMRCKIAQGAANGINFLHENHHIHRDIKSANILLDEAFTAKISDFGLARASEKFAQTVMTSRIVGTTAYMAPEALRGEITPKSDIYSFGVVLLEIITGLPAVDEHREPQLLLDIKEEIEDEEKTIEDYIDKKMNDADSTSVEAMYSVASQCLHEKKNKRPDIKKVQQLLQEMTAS

`O=C(Nc1ccccc1Br)c1cnn2ccc(N[C@@H]3CCCC[C@@H]3O)nc12` [Example 195, N-(2-bromophenyl)-5-{[(1R,2S)-2-hydroxycyclohexyl]amino} pyrazolo[1,5-a]pyrimidine-3-carboxamide]: the IC50 – broadly, the midpoint of a concentration-inhibition curve – worked out at 2930 nM.

For the compound `O=C(Nc1cn(CC(F)F)nc1C(F)(F)F)c1cnn2ccc(N3CC4CCC3CN4)nc12` (stereo not shown) [Example 65, 5-(2,5-diazabicyclo[2.2.2]oct-2-yl)-N-[1-(2,2-difluoroethyl)-3-(trifluoromethyl)-1H-pyrazol-4-yl]pyrazolo[1,5-a]pyrimidine-3-carboxamide trifluoroacetate], the IC50 was 59 nM.

As to `O=C(Nc1cn(CC(F)(F)F)nc1C(F)(F)F)c1cnn2ccc(N3CCNCC3)nc12` [Example 299, 5-piperazin-1-yl-N-[1-(2,2,2-trifluoroethyl)-3-(trifluoromethyl)-1H-pyrazol-4-yl]pyrazolo[1,5-a]pyrimidine-3-carboxamide trifluoroacetate], the IC50 came to 81 nM.

Consider `N#Cc1ccccc1NC(=O)c1cnn2ccc(N[C@@H]3CCCNC3)nc12` [Example 270, N-(2-cyanophenyl)-5-[(3R)-piperidin-3-ylamino]pyrazolo[1,5-a]pyrimidine-3-carboxamide trifluoroacetate], for which the IC50 amounted to 10 nM.

For `Cn1cc(NC(=O)c2cnn3ccc(N[C@H]4CCCCNC4)nc23)c(C(F)F)n1` (single isomer, unassigned) [Example 163, 5-[(3S)- or (3R)-azepan-3-ylamino]-N-[3-(difluoromethyl)-1-methyl-1H-pyrazol-4-yl]pyrazolo[1,5-a]pyrimidine-3-carboxamide trifluoroacetate], the IC50 is 7 nM.

Consider `N[C@@H]1CCCC[C@@H]1Nc1ccn2ncc(C(=O)Nc3cnn(-c4cccnc4)c3)c2n1` [Example 278, 5-{[(1S,2R)-2-aminocyclohexyl]amino}-N-(1-pyridin-3-yl-1H-pyrazol-4-yl)pyrazolo[1,5-a]pyrimidine-3-carboxamide trifluoroacetate], for which the IC50 amounted to 9 nM.

For the compound `Cn1cc(NC(=O)c2cnn3ccc(N4C[C@H]5CC[C@@H]4CN5)nc23)c(Br)n1` (single isomer, unassigned) [Example 165, N-(3-bromo-1-methyl-1H-pyrazol-4-yl)-5-[(1S,4S)- or (1R,4R)-2,5-diazabicyclo[2.2.2]oct-2-yl]pyrazolo[1,5-a]pyrimidine-3-carboxamide trifluoroacetate], the IC50 came out at 19 nM.

With `Cn1cc(NC(=O)c2cnn3ccc(N4C[C@H]5CC[C@@H]4CN5)nc23)c(C(F)(F)F)n1` (single isomer, unassigned) [Example 77, 5-[1S,4S)- or (1R,4R)-2,5-diazabicyclo[2.2.2]oct-2-yl]-N-[1-methyl-3-(trifluoromethyl)-1H-pyrazol-4-yl]pyrazolo[1,5-a]pyrimidine-3-carboxamide trifluoroacetate], the IC50 came to 19 nM.

Regarding `Cn1cc(NC(=O)c2cnn3ccc(N4CCNCC5(CC5)C4)nc23)c(C(F)(F)F)n1` [Example 14, 5-(5,8-diazaspiro[2.6]non-5-yl)-N-[1-methyl-3-(trifluoromethyl)-1H-pyrazol-4-yl]pyrazolo[1,5-15a]pyrimidine-3-carboxamide trifluoroacetate], the IC50 amounted to 16 nM.

Consider `N#Cc1sccc1NC(=O)c1cnn2ccc(N[C@@H]3CCCC(F)(F)[C@@H]3N)nc12` [Example 191, 5-{[(1R,2R)-2-amino-3,3-difluorocyclohexyl]amino}-N-(2-cyanothiophen-3-yl)pyrazolo[1,5-a]pyrimidine-3-carboxamide], for which the IC50 came to 156 nM.

Regarding `O=C(Nc1ccsc1Cl)c1cnn2ccc(N3CCCNCC3)nc12` [Example 117, N-(2-chlorothiophen-3-yl)-5-(1,4-diazepan-1-yl)pyrazolo[1,5-a]pyrimidine-3-carboxamide trifluoroacetate], the IC50 turned out to be 403 nM.

As for `O=C(Nc1ccccc1I)c1cnn2ccc(N3CCNCC4(CC4)C3)nc12` [Example 100, 5-(5,8-diazaspiro[2.6]non-5-yl)-N-(2-iodophenyl)pyrazolo[1,5-a]pyrimidine-3-carboxamide trifluoroacetate], the IC50 worked out at 8080 nM.

For `Cn1cc(NC(=O)c2cnn3ccc(N4CC5CCC4CN5)nc23)c(C(F)F)n1` (stereo not shown) [Example 96, 5-(2,5-diazabicyclo[2.2.2]oct-2-yl)-N-[3-(difluoromethyl)-1-methyl-1H-pyrazol-4-yl]pyrazolo[1,5-a]pyrimidine-3-carboxamide trifluoroacetate], the IC50 is 2 nM.

As for `N#Cc1ccccc1NC(=O)c1cnn2ccc(N[C@@H]3CCCC(F)(F)[C@@H]3N)nc12` [Example 268, 5-{[(1R,2R)-2-amino-3,3-difluorocyclohexyl]amino}-N-(2-cyanophenyl)pyrazolo[1,5-a]pyrimidine-3-carboxamide], the IC50 came out at 268 nM.

`Cn1cc(NC(=O)c2cnn3ccc(N4CCC(F)(F)[C@H](N)C4)nc23)c(C(F)F)n1` (single isomer, unassigned) [Example 193, 5-[(4R)- or (4S)-(3-amino-4,4-difluoropiperidin-1-yl)-N-[3-(difluoromethyl)-1-methyl-1H-pyrazol-4-yl]pyrazolo[1,5-a]pyrimidine-3-carboxamide trifluoroacetate]: the IC50 stood at 2 nM.

In the case of `N[C@H]1CCCC[C@H]1Nc1ccn2ncc(C(=O)Nc3cscc3Cl)c2n1` [Example 168, 5-{[(1R,2S)-2-aminocyclohexyl]amino}-N-(4-chlorothiophen-3-yl)pyrazolo[1,5-a]pyrimidine-3-carboxamide trifluoroacetate], the IC50 was determined as 1 nM.

Turning to `N[C@@H]1[C@H](Nc2ccn3ncc(C(=O)Nc4cn(CC(F)(F)F)nc4C(F)(F)F)c3n2)CCCC1(F)F` [Example 69, 5-{[(1R,2R)-2-amino-3,3-difluorocyclohexyl]amino}-N-[1-(2,2,2-trifluoroethyl)-3-(trifluoromethyl)-1H-pyrazol-4-yl]pyrazolo[1,5-a]pyrimidine-3-carboxamide trifluoroacetate], the IC50 amounted to 927 nM.

For `CC(C)n1cc(NC(=O)c2cnn3ccc(N4CCNCC4)nc23)c(C(F)(F)F)n1` [Example 298, N-[1-(1-methylethyl)-3-(trifluoromethyl)-1H-pyrazol-4-yl]-5-piperazin-1-ylpyrazolo[1,5-a]pyrimidine-3-carboxamide trifluoroacetate], the IC50 is 17 nM.

Turning to `Cn1cc(NC(=O)c2cnn3ccc(N4CCCNCC4)nc23)c(Cl)n1` [Example 148, N-(3-chloro-1-methyl-1H-pyrazol-4-yl)-5-(1,4-diazepan-1-yl)pyrazolo[1,5-a]pyrimidine-3-carboxamide trifluoroacetate], the IC50 came to 113 nM.
